# Measurements: US20160115186A1, “PHOSPHORIC ACID/PHOSPHONIC ACID DERIVATIVES AND MEDICINAL USES THEREOF” (priority 2013, published 2016)
# Read-outs that look alike come from different tables or passages of the source.
# Legend:
# [1] = in vitro; assay type: cell-based; details: human; Hep G 2.2.15 cells, MTT, day 3 post-dosing
# Method: Hep G 2.2.15 cells were inoculated in a 96-well plate (with cell number being 5.5×10^4) to continually cultivate for 3 days, new culture solutions containing different concentrations of drugs were added, and 3 wells were provided in parallel; at day 3 post-dosing, MTT was added until 7.5 mg/ml, and continued to cultivate for 2 hours, the supernate was discarded, isopropanol containing 10% […] was added, 120 μl/well, and 0.4 μl/well was further added.
# [2] = tested on: liver damage in mice caused by CCl4; assay type: in vivo, Kunmin mice; details: serum, CCl4 model, 0.2 mmol oral twice, 24 hours after second administration
# Method: Kunmin mice (20 g) were grouped randomly (8/group). 0.2 mmol of a compound to be tested was orally administered; after 1 hour post-dosing, a 0.1% peanut oil solution of CCl4 was subcutaneously injected (10 mL/kg), to prepare a liver damage model; the normal saline was injected as a normal control group. After modeling for 12 hours, 0.2 mmol of the compound to be tested was orally administrated again. After 24 hours from the second administration, blood samples were collected to take serum specimen so as to determine ALT, AST.
# [3] = tested on: DHBV; experiment: animal or person; assay type: in vivo, sheldrakes; details: Duck hepatitis B virus, po, 336 h, serum DHBV DNA; for inhibition in vivo at 20 mg/kg: 20 mg/kg intragastric once a day for 14 days; for inhibition in vivo at 10 mg/kg: 10 mg/kg intragastric once a day for 14 days
# Method: The sheldrakes infected by vertical transmission and being positive in DHBV DNA detection were grouped randomly, 5/group. Water and different doses of the compound to be tested were intragastrically administrated, respectively, once a day, for 14 days. Venous blood samples were collected pre-dosing, at day 14 of dosing and at day 7 after drug withdrawal, the serum DHBV DNA content was measured using external standard TaqMan real-time fluorescence PCR method, and the inhibition ratio was calculated, as compared to the solvent group.
# [4] = tested on: liver damage in mice caused by D-aminogalactose; assay type: in vivo, Kunmin mice; details: serum, D-aminogalactose 750 mg/kg model, 0.2 mmol oral twice, 24 hours after second administration
# Method: Kunmin mice (20 g) were grouped randomly (8/group). 0.2 mmol of a compound to be tested was orally administered; after 2 hours post-dosing, D-aminogalactose was intraperitoneally injected at a dose of 750 mg/kg to prepare a liver damage model, and the normal saline was subcutaneously injected as a normal control group. After modeling for 12 hours, 0.2 mmol of the compound to be tested was orally administrated again. After 24 hours from the second administration, blood samples were collected to take serum specimen so as to determine ALT, AST.
# [5] = tested on: HBV; experiment: microbe, parasite or virus in culture; assay type: cell-based; details: Hepatitis B virus, HepG2.2.15, 240 h; Hep G 2.2.15 cells, HBV DNA in supernate at day 10 post-dosing; read-out: IC50
# Method: At day 10 post-dosing, 100 μl supernate was taken and the content of HBV DNA was measured by the method of Quantitative PCR to calculate IC50 value.
# [6] = read-out: Inhibition ratio (%) Day 14 of dosing
# [7] = read-out: Inhibition ratio (%) day 7 after drug withdrawal
smiles,measurement,setting,value
CC(C)OC(=O)[C@@H](C)NP(=O)(CO[C@H](C)Cn1cnc2c(N)ncnc21)Oc1ccc2c(c1)OCO2 (stereo partly drawn) [Compound I21],CC50 at 3 days,[1],> 200 µM
"COC(=O)[C@@H](C)NP(=O)(OCCOCn1cnc2c(=O)[nH]c(N)nc21)Oc1ccccc1 (stereo partly drawn) [i-3, reference compound]",ALT,[2],231 U/L
same,AST,[2],446 U/L
same,CC50,[1],177 µM
same,inhibition in vivo at 20 mg/kg,[3]; [6],56.6%
same,inhibition in vivo at 20 mg/kg,[3]; [7],14.6%
same,ALT,[4],1150 U/L
same,AST,[4],1419 U/L
COc1nc(N)nc2c1ncn2[C@@H]1O[C@H](CO[P@@](=O)(N[C@@H](C)C(=O)OC2CCCCC2)Oc2ccc3c(c2)OCO3)[C@@H](O)[C@@]1(C)F [Compound I35],CC50,[1],> 200 µM
CCOC(=O)[C@@H](C)NP(=O)(CO[C@H](C)Cn1cnc2c(N)ncnc21)Oc1ccc2c(c1)OCO2 (stereo partly drawn) [Compound I20],CC50 at 3 days,[1],179 µM
C=C1[C@H](CO[P@@](=O)(N[C@@H](C)C(=O)OC(C)C)Oc2cccc3c2OCO3)[C@@H](O)C[C@@H]1n1cnc2c(=O)[nH]c(N)nc21 [Compound I39-b],IC50,[5],0.065 µM
"COc1nc(N)nc2c1ncn2[C@@H]1O[C@H](CO[P@@](=O)(N[C@@H](C)C(=O)OC(C)C)Oc2ccccc2)[C@@H](O)[C@@]1(C)F [PSI-353661, reference compound]",ALT,[2],1669 U/L
same,AST,[2],2312 U/L
same,CC50,[1],149 µM
same,ALT,[4],1558 U/L
same,AST,[4],1027 U/L
"COc1ccc(Sc2nc(N)nc3c2ncn3CCOCP(=O)(Oc2cccc3c2OCO3)Oc2cccc3c2OCO3)cc1 [Compound I7, 2-amino-6-(4-methoxylphenyl)thio-9-[[[bis-((benzo[1,3]dioxolan-4-yl)-oxyl)-phosphonyl]-methoxyl]-ethyl]-purine]",CC50 at 3 days,[1],> 200 µM
C[C@H](Cn1cnc2c(N)ncnc21)OCP(=O)(N[C@H](C)C(=O)OC1CCCCC1)Oc1ccc2c(c1)OCO2 (stereo partly drawn) [Compound I25],CC50 at 3 days,[1],> 200 µM
"C[C@@]1(F)[C@H](O)[C@@H](COP(=O)(Oc2ccc3c(c2)OCO3)Oc2ccc3c(c2)OCO3)O[C@H]1n1ccc(=O)[nH]c1=O [Compound I17, 5′-O-[bis-((benzo[1,3]dioxolan-5-yl)-oxyl)-phosphoryl]-β-D-2′-deoxy-2′-α-fluoro-2′-β-C-methyl uridine]",CC50 at 3 days,[1],> 200 µM
C=C1[C@H](CO[P@](=O)(N[C@@H](C)C(=O)OC(C)C)Oc2cccc3c2OCO3)[C@@H](O)C[C@@H]1n1cnc2c(=O)[nH]c(N)nc21 [Compound I39-a],IC50,[5],0.017 µM
COc1nc(N)nc2c1ncn2[C@@H]1O[C@H](CO[P@@](=O)(N[C@@H](C)C(=O)OC(C)C)Oc2ccc3c(c2)OCO3)[C@@H](O)[C@@]1(C)F [Compound I34-b],ALT,[2],289 U/L
same,AST,[2],536 U/L
same,ALT,[4],341 U/L
same,AST,[4],194 U/L
CC(C)OC(=O)[C@H](C)N[P@](=O)(OC[C@H]1O[C@@H](n2ccc(N)nc2=O)CS1)Oc1ccc2c(c1)OCO2 [Compound I36],ALT,[2],490 U/L
same,AST,[2],543 U/L
same,CC50,[1],> 200 µM
same,inhibition in vivo at 20 mg/kg,[3]; [6],92%
same,inhibition in vivo at 20 mg/kg,[3]; [7],10.8%
same,ALT,[4],187 U/L
same,AST,[4],113 U/L
CCOC(=O)[C@H](C)N[P@](=O)(OC[C@H]1O[C@@H](n2ccc(=O)[nH]c2=O)[C@](C)(F)[C@@H]1O)Oc1ccc2c(c1)OCO2 [Compound I30],CC50,[1],> 200 µM
C[C@H](N[P@](=O)(OC[C@H]1O[C@@H](n2ccc(=O)[nH]c2=O)[C@](C)(F)[C@@H]1O)Oc1ccc2c(c1)OCO2)C(=O)OC1CCCCC1 [Compound I32],CC50,[1],> 200 µM
CC(C)OC(=O)[C@H](C)N[P@@](=O)(OC[C@H]1O[C@@H](n2ccc(=O)[nH]c2=O)[C@](C)(F)[C@@H]1O)Oc1ccc2c(c1)OCO2 [Compound I31-a],ALT,[2],507 U/L
same,AST,[2],446 U/L
same,ALT,[4],421 U/L
same,AST,[4],253 U/L
"CC(C)OC(=O)[C@H](C)N[P@](=O)(OC[C@H]1O[C@@H](n2ccc(=O)[nH]c2=O)[C@](C)(F)[C@@H]1O)Oc1ccccc1 [PSI-7977, 5′-[(S)-[[(S)-1-(isopropoxycarbonyl)-ethyl]-amino]-phenoxylphosphoryl]-β-D-2′-deoxy-2′-α-fluoro-2′-β-C-methyluridine, reference compound]",ALT,[2],2324 U/L
same,AST,[2],2538 U/L
same,CC50,[1],178 µM
same,ALT,[4],1079 U/L
same,AST,[4],1727 U/L
COc1nc(N)nc2c1ncn2[C@@H]1O[C@H](COP(=O)(N[C@@H](C)C(=O)OC(C)C)Oc2cccc3c2OCO3)[C@@H](O)[C@@]1(C)F (stereo partly drawn) [Compound I40],CC50,[1],> 200 µM
COC(=O)[C@H](C)N[P@](=O)(OC[C@H]1O[C@@H](n2ccc(N)nc2=O)CS1)Oc1ccc2c(c1)OCO2 [Compound I37],CC50,[1],193 µM
same,inhibition in vivo at 10 mg/kg,[3]; [6],75.2%
same,inhibition in vivo at 10 mg/kg,[3]; [7],9.4%
CCOC(=O)[C@H](C)N[P@](=O)(OC[C@H]1O[C@@H](n2cnc3c(OC)nc(N)nc32)[C@](C)(F)[C@@H]1O)Oc1ccc2c(c1)OCO2 [Compound I33],CC50,[1],> 200 µM
"CC(C)Cc1sc(N)nc1-c1ccc(P(=O)(Oc2ccc3c(c2)OCO3)Oc2ccc3c(c2)OCO3)o1 [Compound I10, bis-(benzo[1,3]dioxolan-5-yl) [5-[2-amino-5-(2-methylpropyl)-thiazol-4-yl]-furan-2-yl]-phosphonate]",CC50 at 3 days,[1],> 200 µM
"C[C@H](Cn1cnc2c(N)ncnc21)OCP(=O)(Oc1cccc2c1OCO2)Oc1cccc2c1OCO2 [Compound I5, 9-[(R)-2-[[bis-((benzo[1,3]dioxolan-4-yl)-oxyl)-phosphonyl]-methoxyl]-propyl]-adenine]",CC50 at 3 days,[1],> 200 µM
"Cc1cc(OCP(=O)(Oc2ccc3c(c2)OCO3)Oc2ccc3c(c2)OCO3)cc(C)c1Cc1ccc(O)c(C(C)C)c1 [Compound I9, bis-(benzo[1,3]dioxolan-5-yl) [(3,5-dimethyl-4-(4′-hydroxyl-3′-isopropylbenzyl)phenoxyl)-methyl]-phosphonate]",CC50 at 3 days,[1],> 200 µM
CC(C)OC(=O)[C@H](C)N[P@](=O)(OC[C@H]1O[C@@H](n2ccc(=O)[nH]c2=O)[C@](C)(F)[C@@H]1O)Oc1ccc2c(c1)OCO2 [Compound I31-b],ALT,[2],205 U/L
same,AST,[2],439 U/L
same,ALT,[4],375 U/L
same,AST,[4],751 U/L
CC(C)C[C@@H](NP(=O)(CO[C@H](C)Cn1cnc2c(N)ncnc21)Oc1ccc2c(c1)OCO2)C(=O)OC(C)C (stereo partly drawn) [Compound I23],CC50 at 3 days,[1],> 200 µM
COc1nc(N)nc2c1ncn2[C@@H]1O[C@H](COP(=O)(N[C@@H](C)C(=O)OC(C)C)Oc2ccc3c(c2)OCO3)[C@@H](O)[C@@]1(C)F (stereo partly drawn) [Compound I34],CC50,[1],> 200 µM
"C=C1[C@H](COP(=O)(N[C@@H](C)C(=O)OC(C)C)Oc2cccc3c2OCO3)[C@@H](O)C[C@@H]1n1cnc2c(=O)[nH]c(N)nc21 (stereo partly drawn) [Compound I39, 9-[(1S,3R,4S)-4-hydroxyl-3-[(((benzo[1,3]dioxolan-4-yl)-oxyl)-1-isopropoxycarbonylethylamino-phosphoryl)-oxymethyl]-2-methylenecyclopentyl]-guanine]",CC50,[1],182 µM
CC(C)OC(=O)[C@H](C)NP(=O)(OC[C@H]1O[C@@H](n2ccc(=O)[nH]c2=O)[C@](C)(F)[C@@H]1O)Oc1ccc2c(c1)OCO2 (stereo partly drawn) [Compound I31],CC50,[1],> 200 µM
"C=C1[C@H](COP(=O)(Oc2ccc3c(c2)OCO3)Oc2ccc3c(c2)OCO3)[C@@H](O)C[C@@H]1n1cnc2c(OC)nc(N)nc21 [Compound I16, 2-amino-6-methoxyl-9-[(1S,3R,4S)-4-hydroxyl-3-(bis-(((benzo[1,3]dioxolan-5-yl)-oxyl)-phosphoryl)-oxymethyl)-2-methylenecyclopentyl]-purine]",CC50 at 3 days,[1],> 200 µM
COc1nc(N)nc2c1ncn2[C@@H]1O[C@H](CO[P@](=O)(N[C@@H](C)C(=O)OC(C)C)Oc2ccc3c(c2)OCO3)[C@@H](O)[C@@]1(C)F [Compound I34-a],ALT,[2],293 U/L
same,AST,[2],763 U/L
same,ALT,[4],131 U/L
same,AST,[4],282 U/L
